Test results reported in patent publication US11708375B2, “Reagents for reversibly protecting biological molecules” (BIOMÉRIEUX, priority 2016, dated 2023).

Legend:
Human hemoglobin = molecular target: T1, Human hemoglobin (Homo sapiens, UniProt P68871+P69905); experiment: Reversible acylation of hemoglobin by compound 13 (HPLC profile); type: biochemical
T1 construct: purchased Sigma H7379
Description: The mixtures are created as described below, where experiments AL600 1× to AL 600 0.25× respectively correspond to 33 μg hemoglobin reacted with increasing concentrations of the azaisatoic compound in a mixture of DMSO and PBS at pH 7.4 (PBS=Phosphate buffered saline resulting from dissolving a tablet, reference Sigma P4417, in 200 ml water (pH 7.4)) The mixtures are incubated at room temperature for 2 hours before collecting an aliquot for HPLC analysis on a Waters XBridge BEH C4 300 column (Milford. USA), with a gradient of 20 to 72% acetonitrile in a solution of 10 mM trifluoroacetic acid, at 120 min.
One can clearly see, as before, that acylation of the hemoglobin leads to formation of a mass of acylated protein and then this mass disappears after heat treatment in order to regenerate the native protein.

Taq polymerase = molecular target: T2, Taq polymerase (Thermus aquaticus, UniProt P19821); experiment: Polymerase activity of TAQ modified by compound 13 (hairpin probe elongation fluorescence); type: biochemical; settings: AL 604 0.375x
T2 construct: purchased Genscript E00012
Description: We used the Genscript Taq (2500 u/100 μl REF E00012), but in order to eliminate all traces of nucleophiles in this enzyme we did a change of buffer beforehand by passing through an Amicon 10 KD microcon (no. 42407). The enzyme suspension was thus deposited on the microcon and centrifuged until buffer depletion Five washes were performed with […] PBS pH 7.4, then the last retentate was recovered by inverting the tube and made up to QSP 20 μl with PBS to obtain a suspension at 125 u/μl. […]
The polymerization activity of the TAQ polymerase is determined using an oligonucleotide probe of 45 bases terminated by a “hairpin” structure. This is characterized by the presence of a fluorescence quencher at the beginning of the structure and a fluorophore at the end of the probe sequence, such that the quencher is spatially close to the fluorophore and no fluorescence signal can be measured in this configuration. […] Due to the elongation action, the probe hairpin structure is unfolded and the fluorophore is able to emit, and fluorescence is then measurable. This fluorescence measurement is carried out at a temperature of 60° C. for 20 minutes in the presence of the reagents required for activity of the enzyme, meaning dNTP, MgCl2, and a basic buffer at pH 9.5. […]
The ability to restore the activity of the enzyme after heating for 15 min at 95° C. for example is readily measurable by the same method.

[1] = Cleavage at 95° C. of aza-anthranilate amides and release of phenylethylamine under hot start PCR conditions (LCMS/HPLC monitoring); type: physicochemical; settings: 60 mM Tris pH 9 PCR buffer
Description: Into a 1.5 mL tube are added: 20 μL 2.5 mM amide solution (10, 14 or 19) in DMSO and 180 μL of a buffer conventionally used in a genetic material amplification reaction (60 mM Tris pH 9, 50 mM […], 1 mM MgCl2). The mixture is then stirred at 95° C. in a thermomixer. LCMS monitoring (condition 1) is performed at t=15 min, 30 min, and 1 h
Thermal deprotection of the phenoxyacetate group leads to formation of the corresponding benzyl alcohol (see Diagram 7). The nucleophilic attack of alcohol on the carbonyl involved in the amide bond then allows releasing the phenylethylamine into the medium by generating the corresponding lactone.
This derivative can then be cyclized to form the corresponding […] by releasing phenylethylamine into the medium (Diagram 9 above).

T1 sequence (P69905 2-142 limits assumed): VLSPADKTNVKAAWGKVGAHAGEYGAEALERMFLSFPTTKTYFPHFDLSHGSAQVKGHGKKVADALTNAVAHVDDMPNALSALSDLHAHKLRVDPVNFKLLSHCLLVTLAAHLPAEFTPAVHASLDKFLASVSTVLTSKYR
T1 sequence (P68871 2-147 limits assumed): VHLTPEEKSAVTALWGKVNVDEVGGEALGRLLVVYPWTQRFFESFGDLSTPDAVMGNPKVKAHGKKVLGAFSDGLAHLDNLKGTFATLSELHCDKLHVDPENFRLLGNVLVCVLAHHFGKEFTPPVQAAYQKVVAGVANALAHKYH
T2 sequence (P19821 whole entry): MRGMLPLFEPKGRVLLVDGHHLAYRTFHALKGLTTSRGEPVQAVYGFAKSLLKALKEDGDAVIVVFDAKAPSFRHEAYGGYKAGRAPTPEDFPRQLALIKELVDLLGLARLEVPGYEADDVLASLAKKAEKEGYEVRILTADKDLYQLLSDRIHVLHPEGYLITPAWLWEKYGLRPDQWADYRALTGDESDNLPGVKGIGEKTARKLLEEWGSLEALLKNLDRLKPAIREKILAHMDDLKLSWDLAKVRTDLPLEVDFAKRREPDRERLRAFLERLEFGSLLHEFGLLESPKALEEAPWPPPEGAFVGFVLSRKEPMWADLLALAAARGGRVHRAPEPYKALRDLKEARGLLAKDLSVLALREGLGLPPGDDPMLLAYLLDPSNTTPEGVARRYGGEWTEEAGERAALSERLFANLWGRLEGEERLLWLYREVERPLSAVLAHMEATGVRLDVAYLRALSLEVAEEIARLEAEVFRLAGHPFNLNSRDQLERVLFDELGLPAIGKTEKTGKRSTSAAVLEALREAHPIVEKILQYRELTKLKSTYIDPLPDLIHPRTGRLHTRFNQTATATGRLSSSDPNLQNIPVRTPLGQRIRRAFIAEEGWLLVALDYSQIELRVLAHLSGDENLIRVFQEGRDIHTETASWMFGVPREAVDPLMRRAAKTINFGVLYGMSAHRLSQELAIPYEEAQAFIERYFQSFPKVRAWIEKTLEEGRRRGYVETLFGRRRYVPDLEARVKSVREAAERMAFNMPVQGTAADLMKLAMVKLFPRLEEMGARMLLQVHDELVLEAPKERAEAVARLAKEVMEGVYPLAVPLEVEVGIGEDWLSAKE

## Cn1c(=O)oc(=O)c2c(COC(=O)COc3ccc(F)cc3)c(I)cnc21 [compound 13, (6-iodo-1-methyl-2,4-dioxo-2,4-dihydro-1H-pyrido[2,3-d][1,3]oxazine-5-yl) methyl 2-(4-fluorophenoxy)acetate]
Human hemoglobin; 33 μg hemoglobin, AL 600 0.25x-1x, DMSO/PBS pH 7.4, room temperature, 2 hours
  acylation of hemoglobin (HPLC chromatogram): disappearance of the protein portion in favor of a massive shift to the right
Human hemoglobin; AL 600 1x, 95° C. for 15 min in PCR buffer (Tris pH9), taken up in 8M GuHCl
  reversal of the acylation of hemoglobin after heat treatment (HPLC chromatogram): restoring the chromatographic profile of the native hemoglobin
Taq polymerase; 625 units Taq, DMSO/PBS pH 7.4, 3 hours room temperature, measured at 60° C. for 20 minutes
  polymerase activity of Taq after acylation, without activation: completely inactivated
Taq polymerase; after treatment at 95° C. for 15 min under hot start PCR conditions
  polymerase activity of Taq after acylation and heat activation: restored

## CNc1ncc(I)c(COC(=O)COc2ccc(F)cc2)c1C(=O)NCCc1ccccc1 [derivative 14, (5-iodo-2-(methylamino)-3-(phenethylcarbamoyl)pyridine-4-yl)methyl 2-(4-fluorophenoxy)acetate]
[1]; 15 minutes at 95° C.
  amide population: very low
[1]; 30 minutes at 95° C.
  amide population: almost completely disappeared

## CNc1ncc(I)c(COC(=O)COc2ccccc2)c1C(=O)NCCc1ccccc1 [derivative 10, (5-iodo-2-(methylamino)-3-(phenethylcarbamoyl)pyridine-4-yl)methyl 2-phenoxyacetate]
[1]; 15 minutes at 95° C., 10% DMSO
  species observed by HPLC after heating (cleavage of the amide derivative): formation of the deprotected alcohol and the expected lactone
[1]; 1 h at 95° C.
  population of the initial amide and the alcohol: almost completely disappeared

## CNc1ncc(I)c(CNC(=O)OC(C)(C)C)c1C(=O)NCCc1ccccc1 [derivative 19, tert-butyl ((5-iodo-2-(methylamino)-3-(phenethylcarbamoyl)pyridine-4-yl)methyl)carbamate]
[1]; 95° C.
  non-cyclized deprotected form (intermediate amine) on HPLC monitoring: not detected
